From US20030130180A1, “Utilization of an aminopeptidase inhibitor” (priority 2000, published 2003)

Experiments:
tumor cells [1] = conditions: cited from earlier work; for tumor cell invasion: in vitro, matrigel analytic system
[2] = tested on: tumor cells and immune cells; assay: Cell-biological experiments on blocking of polarization of tumor cells and immune cells; format: cell-based; conditions: general statement
Source text: By means of a method of simultaneously detecting a number of cell surface proteins, it has been established that aminopeptidases will control cell surface proteins which are not part of the class of proteolytic enzymes, but belong to the class of the adhesion molecules, which adhesion molecules—in a certain combination and geometric array—will be decisive for the polarization of the cells. Consequently, aminopeptidases appear to be superordinate control proteins in a protein network consisting of up to 30 different cell surface protein species which—through specific interaction with one another—will control polarization of tumor cells and other invasive cells such as immune cells and which are listed above. The inhibition of at least one aminopeptidase will lead to a reproducible modification of surface protein combinations on the cell surface which will always also involve a modification of CD13. […] The term polarization as used here shall denote a process in which a primarily spherical cell will transition into an oblong, elongated cell shape, via various intermediate states. This process which constitutes a change of shape controlled by the complex protein network is the prerequisite for cell migration, since only cells of oblong shape are capable of migrating. The polarization process therefore needs to precede all cell migration processes, including invasion. […]

tumor cells [3] = conditions: cited from earlier work

Row | SMILES | formation of cell extensions (tumor cells [1]) | tumor cell invasion (tumor cells [1]) | modification of the surface proteins of the protein network [2] | degradation of type IV collagen (tumor cells [3]) | invasion of tumor cells (tumor cells [3]) | tumor cell adhesion and migration to the extracellular matrix (tumor cells [3])
1 | CCc1cccc(CC)c1N1C(=O)Cc2ccccc2C1=O [PIQ-22] | suppression of the formation of cell extensions | inhibition of the invasion | – | – | – | –
2 | CC(C)C[C@H](NC(=O)[C@@H](O)[C@H](N)Cc1ccccc1)C(=O)O [bestatin] | no effect | do not have an effect | leading to a modification of the surface proteins of the protein network | capable of preventing degradation of the type IV collagen | preventing the invasion of tumor cells | does not have any influence
